Activity calls are given as the source filed them. No cut-off for these calls is given here.
System: not listed separately
Assay: Metabolic stability in human hepatocytes assessed as intrinsic clearance per million cells at 1 uM measured upto 30 mins
Type: ADME, cell-based, Hepatocyte
Details: read-out: CLH

| Structure (SMILES) | hepatocyte CLint at 1 µM |
| --- | --- |
| CC(c1nc(-c2cc(NCc3ccc(C(=O)O)s3)cc(C(F)(F)F)c2)no1)c1cccc2ccccc12 (stereo not given) | 7.5 µL/min/1e6 cells |
| CC(c1nc(-c2cc(NCc3ccc(C(=O)O)cc3)cc(C(F)(F)F)c2)no1)c1cccc2ccccc12 (stereo not given) | 19 µL/min/1e6 cells |

System: not listed separately
Assay: Metabolic stability in human liver microsomes assessed as half life at 1 uM preincubated for 5 mins followed by NADPH addition and measured after 30 mins by LC-MS/MS analysis
Type: ADME, Microsome
Details: time 35 min

| Structure (SMILES) | half-life at 1 µM |
| --- | --- |
| CC(c1nc(-c2ccc(NCc3ccc(C(=O)O)s3)cc2)no1)c1cccc2ccccc12 (stereo not given) | > 93.2 min |
| Cc1ccc(-c2noc(C(C)c3cccc(Oc4ccccc4)c3)n2)cc1NCc1ccc(C(=O)O)s1 (stereo not given) | > 93.2 min |

Target: Replicase polyprotein 1ab (Middle East respiratory syndrome-related coronavirus (isolate UnitedKingdom/H123990006/2012) (Betacoronavirus England 1) (Humancoronavirus EMC)) (UniProt K9N7C7)
Assay: Inhibition of MERS-CoV PLpro using Z-RLRGG-AMC as substrate preincubated for 10 mins followed by substrate addition and measured after 20 sec shaking for 30 mins by time-resolved fluorescence assay
Details: time 40.3 min

| Structure (SMILES) | inhibition |
| --- | --- |
| CC(c1nc(-c2ccc(NCc3ccc(C(=O)O)s3)cc2)no1)c1cccc2ccccc12 (stereo not given) | Active |
| Cc1ccc(-c2noc(C(C)c3cccc(Oc4ccccc4)c3)n2)cc1NCc1ccc(C(=O)O)s1 (stereo not given) | Active |

Target: Replicase polyprotein 1ab (Severe acute respiratory syndrome coronavirus 2) (UniProt P0DTD1)
Assay: Potency index, ratio of GRL0617 IC50 to test compound IC50 for inhibition of SARS-CoV2 PLpro
Details: not given

| Structure (SMILES) | Ratio IC50 |
| --- | --- |
| Cc1ccc(-c2noc(C(C)c3cccc4ccccc34)n2)cc1NCc1ccc(C(=O)O)s1 (stereo not given) | 10 |
| CC(c1nc(-c2cc(NCc3ccc(C(=O)O)s3)cc(C(F)(F)F)c2)no1)c1cccc2ccccc12 (stereo not given) | 10 |

System: not listed separately
Assay: Metabolic stability in mouse hepatocytes assessed as compound remaining at 1 uM measured after 30 mins
Type: ADME, cell-based, Hepatocyte
Details: read-out: Stability

| Structure (SMILES) | remaining at 0.5 h, 1 µM |
| --- | --- |
| CC(c1nc(-c2cc(NCc3ccc(C(=O)O)s3)cc(C(F)(F)F)c2)no1)c1cccc2ccccc12 (stereo not given) | 68% |
| CC(c1nc(-c2cc(NCc3ccc(C(=O)O)cc3)cc(C(F)(F)F)c2)no1)c1cccc2ccccc12 (stereo not given) | 28.8% |

System: not listed separately
Assay: Metabolic stability in human hepatocytes assessed as half life at 1 uM measured upto 30 mins
Type: ADME, cell-based, Hepatocyte
Details: not given

| Structure (SMILES) | half-life at 1 µM |
| --- | --- |
| CC(c1nc(-c2cc(NCc3ccc(C(=O)O)s3)cc(C(F)(F)F)c2)no1)c1cccc2ccccc12 (stereo not given) | 92.4 min |
| CC(c1nc(-c2cc(NCc3ccc(C(=O)O)cc3)cc(C(F)(F)F)c2)no1)c1cccc2ccccc12 (stereo not given) | 36.5 min |

Target: Replicase polyprotein 1ab (Severe acute respiratory syndrome coronavirus 2) (UniProt P0DTD1)
Assay: Inhibition of SARS-CoV2 PLpro cleavage activity using 2Ub-K48 as substrate incubated overnight by SYPRO Ruby staining based SDS-PAGE analysis
Details: not given

| Structure (SMILES) | inhibition |
| --- | --- |
| CC(c1nc(-c2ccc(NCc3ccc(C(=O)O)s3)cc2)no1)c1cccc2ccccc12 (stereo not given) | Active |
| Cc1ccc(-c2noc(C(C)c3cccc(Oc4ccccc4)c3)n2)cc1NCc1ccc(C(=O)O)s1 (stereo not given) | Active |

Target: Replicase polyprotein 1ab (Severe acute respiratory syndrome coronavirus 2) (UniProt P0DTD1)
Assay: Binding affinity to SARS-CoV2 PLpro assessed as stabilization by measuring increase melting temperature by thermal shift assay
Details: not given

| Structure (SMILES) | Activity |
| --- | --- |
| CC(c1nc(-c2ccc(NCc3ccc(C(=O)O)s3)cc2)no1)c1cccc2ccccc12 (stereo not given) | Active |
| Cc1ccc(-c2noc(C(c3ccccc3)c3ccccc3)n2)cc1NCc1ccc(C(=O)O)s1 | Active |
| Cc1ccc(-c2noc(C(C)c3cccc(-c4cccs4)c3)n2)cc1NCc1ccc(C(=O)O)s1 (stereo not given) | Active |

System: not listed separately
Assay: Metabolic stability in CD-1 mouse liver microsomes assessed as compound remaining at 1 uM preincubated for 5 mins followed by NADPH addition and measured after 30 mins by LC-MS/MS analysis
Type: ADME, Microsome
Details: read-out: Stability

| Structure (SMILES) | remaining at 0.5 h, 1 µM |
| --- | --- |
| CC(c1nc(-c2ccc(NCc3ccc(C(=O)O)s3)cc2)no1)c1cccc2ccccc12 (stereo not given) | 93.8% |
| Cc1ccc(-c2noc(C(C)c3cccc(Oc4ccccc4)c3)n2)cc1NCc1ccc(C(=O)O)s1 (stereo not given) | 80% |

System: Severe acute respiratory syndrome-related coronavirus
Assay: Inhibition of SARS-CoV PLpro using Z-RLRGG-AMC as substrate preincubated for 10 mins followed by substrate addition and measured after 20 sec shaking for 30 mins by time-resolved fluorescence assay
Details: not given

| Structure (SMILES) | inhibition |
| --- | --- |
| CC(c1nc(-c2ccc(NCc3ccc(C(=O)O)s3)cc2)no1)c1cccc2ccccc12 (stereo not given) | Active |
| Cc1ccc(-c2noc(C(C)c3cccc(Oc4ccccc4)c3)n2)cc1NCc1ccc(C(=O)O)s1 (stereo not given) | Active |

System: not listed separately
Assay: Metabolic stability in mouse hepatocytes assessed as intrinsic clearance per million cells at 1 uM measured upto 30 mins
Type: ADME, cell-based, Hepatocyte
Details: read-out: CLH

| Structure (SMILES) | hepatocyte CLint at 1 µM |
| --- | --- |
| CC(c1nc(-c2cc(NCc3ccc(C(=O)O)s3)cc(C(F)(F)F)c2)no1)c1cccc2ccccc12 (stereo not given) | 12.9 µL/min/1e6 cells |
| CC(c1nc(-c2cc(NCc3ccc(C(=O)O)cc3)cc(C(F)(F)F)c2)no1)c1cccc2ccccc12 (stereo not given) | 41.5 µL/min/1e6 cells |

System: not listed separately
Assay: Metabolic stability in human liver microsomes assessed as compound remaining at 1 uM preincubated for 5 mins followed by NADPH addition and measured after 30 mins by LC-MS/MS analysis
Type: ADME, Microsome
Details: read-out: Stability

| Structure (SMILES) | remaining at 0.5 h, 1 µM |
| --- | --- |
| CC(c1nc(-c2ccc(NCc3ccc(C(=O)O)s3)cc2)no1)c1cccc2ccccc12 (stereo not given) | 102% |
| Cc1ccc(-c2noc(C(C)c3cccc(Oc4ccccc4)c3)n2)cc1NCc1ccc(C(=O)O)s1 (stereo not given) | 87% |

System: not listed separately
Assay: Metabolic stability in CD-1 mouse liver microsomes assessed as half life at 1 uM preincubated for 5 mins followed by NADPH addition and measured after 30 mins by LC-MS/MS analysis
Type: ADME, Microsome
Details: time 35 min

| Structure (SMILES) | half-life at 1 µM |
| --- | --- |
| CC(c1nc(-c2ccc(NCc3ccc(C(=O)O)s3)cc2)no1)c1cccc2ccccc12 (stereo not given) | > 93.2 min |
| Cc1ccc(-c2noc(C(C)c3cccc(Oc4ccccc4)c3)n2)cc1NCc1ccc(C(=O)O)s1 (stereo not given) | > 93.2 min |

Target: T1, Replicase polyprotein 1ab (Severe acute respiratory syndrome coronavirus 2, UniProt P0DTD1)
Assay: Inhibition of SARS-CoV2 PLpro using Z-RLRGG-AMC as substrate preincubated for 10 mins followed by substrate addition and measured after 20 sec shaking for 30 mins by time-resolved fluorescence assay
Details: not given

| Structure (SMILES) | IC50 |
| --- | --- |
| Cc1ccc(-c2noc(C(C)c3cccc4ccccc34)n2)cc1NCc1ccc(C(=O)O)s1 (stereo not given) | 0.1 µM |
| Cc1ccc(NCc2ccc(C(=O)O)cc2)cc1-c1noc(C(C)c2cccc3ccccc23)n1 (stereo not given) | 11.2 µM |
| CC(c1noc(-c2ccc(-c3ccc(C(=O)O)s3)cc2)n1)c1cccc2ccccc12 (stereo not given) | 2.1 µM |
| CC(c1nc(-c2cc(NCc3ccc(C(=O)O)s3)cc(C(F)(F)F)c2)no1)c1cccc2ccccc12 (stereo not given) | 0.1 µM |
| Cc1ccc(-c2noc(Cc3cccc(-c4cccs4)c3)n2)cc1NCc1ccc(C(=O)O)s1 | 6.8 µM |
| CC(c1nc(-c2ccc(NCc3ccc(C(=O)O)s3)cc2)no1)c1cccc2ccccc12 (stereo not given) | 0.2 µM |
| COc1ccc2cc([C@H](C)c3nc(-c4ccc(C)c(NCc5ccc(C(=O)O)s5)c4)no3)ccc2c1 | 5.8 µM |
| CC(c1nc(-c2cccc(NCc3ccc(C(=O)O)s3)c2)no1)c1cccc2ccccc12 (stereo not given) | 7.6 µM |
| Cc1ccc(NC2CCC(C(=O)O)CC2)cc1-c1noc(C(C)c2cccc3ccccc23)n1 (stereo not given) | 22.7 µM |
| Cc1ccc(NC2CCCCC2)cc1-c1noc(C(C)c2cccc3ccccc23)n1 (stereo not given) | 101 µM |
| CC(c1ncc(-c2ccc(-c3ccc(C(=O)O)s3)cc2)o1)c1cccc2ccccc12 (stereo not given) | 7.7 µM |
| CC(c1noc(-c2ccc(-c3ccc(C#N)s3)cc2)n1)c1cccc2ccccc12 (stereo not given) | 31.4 µM |
| Cc1ccc(-c2noc([C@@H](C)c3ccc(-c4ccccc4)c(F)c3)n2)cc1NCc1ccc(C(=O)O)s1 | 3.4 µM |
| CC(c1nc(-c2cc(NCc3ccc(C(=O)O)cc3)ccc2Br)no1)c1cccc2ccccc12 (stereo not given) | 2.1 µM |
| Cc1ccc(-c2noc(C(C)c3ccc4c(c3)[nH]c3ccc(Cl)cc34)n2)cc1NCc1ccc(C(=O)O)s1 (stereo not given) | 1.9 µM |
| Cc1ccc(NCc2cccc(C(=O)O)c2)cc1-c1noc(C(C)c2cccc3ccccc23)n1 (stereo not given) | 11.1 µM |
| CC(c1nc(-c2ccc(Nc3ccc(C(=O)O)cc3)cc2)no1)c1cccc2ccccc12 (stereo not given) | 4.2 µM |
| Cc1ccc(NCc2ccc(C(=O)O)s2)cc1-c1noc(C(C)c2cccc3ccccc23)n1 (stereo not given) | 10.4 µM |
| Cc1ccc(NCc2ccc(C#N)cc2)cc1-c1noc(C(C)c2cccc3ccccc23)n1 (stereo not given) | > 200 µM |
| Cc1ccc(-c2noc(C(c3ccccc3)c3ccccc3)n2)cc1NCc1ccc(C(=O)O)s1 | 9 µM |
| Cc1ccc(-c2noc(C(C)c3ccc(N4Cc5ccccc5C4=O)cc3)n2)cc1NCc1ccc(C(=O)O)s1 (stereo not given) | 3.9 µM |
| Cc1ccc(-c2noc(C(C)(C)c3ccc(-c4ccccc4)cc3)n2)cc1NCc1ccc(C(=O)O)s1 | 35.4 µM |
| Cc1ccc(-c2noc(C(C)c3cccc(C(O)c4ccccc4)c3)n2)cc1NCc1ccc(C(=O)O)s1 (stereo not given) | 11.1 µM |
| Cc1ccc(NC2CCC(C#N)CC2)cc1-c1noc(C(C)c2cccc3ccccc23)n1 (stereo not given) | > 200 µM |
| CC(c1nc(-c2cc(NCc3ccc(C(=O)O)cc3)cc(C(F)(F)F)c2)no1)c1cccc2ccccc12 (stereo not given) | 0.2 µM |
| CC(c1nc(-c2ccc(N(C)Cc3ccc(C(=O)O)s3)cc2)no1)c1cccc2ccccc12 (stereo not given) | 4 µM |
| Cc1ccc(-c2noc(C(C)c3cccc(-c4cccs4)c3)n2)cc1NCc1ccc(C(=O)O)s1 (stereo not given) | 4.1 µM |
| Cc1ccc(-c2noc(C(C)c3cccc(Oc4ccccc4)c3)n2)cc1NCc1ccc(C(=O)O)s1 (stereo not given) | 4.4 µM |

System: not listed separately
Assay: Metabolic stability in human hepatocytes assessed as compound remaining at 1 uM measured after 30 mins
Type: ADME, cell-based, Hepatocyte
Details: read-out: Stability

| Structure (SMILES) | remaining at 0.5 h, 1 µM |
| --- | --- |
| CC(c1nc(-c2cc(NCc3ccc(C(=O)O)s3)cc(C(F)(F)F)c2)no1)c1cccc2ccccc12 (stereo not given) | 79.8% |
| CC(c1nc(-c2cc(NCc3ccc(C(=O)O)cc3)cc(C(F)(F)F)c2)no1)c1cccc2ccccc12 (stereo not given) | 56.6% |

Target: T1, Replicase polyprotein 1ab
Assay: Binding affinity to SARS-CoV2 PLpro by biolayer interferometry analysis
Details: not given

| Structure (SMILES) | Kd |
| --- | --- |
| CC(c1nc(-c2cc(NCc3ccc(C(=O)O)s3)cc(C(F)(F)F)c2)no1)c1cccc2ccccc12 (stereo not given) | 13.6 µM |
| CC(c1nc(-c2ccc(NCc3ccc(C(=O)O)s3)cc2)no1)c1cccc2ccccc12 (stereo not given) | 13.6 µM |
| Cc1ccc(-c2noc(C(C)c3ccc4c(c3)[nH]c3ccc(Cl)cc34)n2)cc1NCc1ccc(C(=O)O)s1 (stereo not given) | 13.6 µM |
| CC(c1nc(-c2cc(NCc3ccc(C(=O)O)cc3)cc(C(F)(F)F)c2)no1)c1cccc2ccccc12 (stereo not given) | 13.6 µM |

Target: Replicase polyprotein 1ab (Severe acute respiratory syndrome coronavirus 2) (UniProt P0DTD1)
Assay: Inhibition of RLRGG binding to SARS-CoV2 PLpro
Details: not given

| Structure (SMILES) | inhibition |
| --- | --- |
| CC(c1nc(-c2ccc(NCc3ccc(C(=O)O)s3)cc2)no1)c1cccc2ccccc12 (stereo not given) | Active |
| Cc1ccc(-c2noc(C(C)c3cccc(Oc4ccccc4)c3)n2)cc1NCc1ccc(C(=O)O)s1 (stereo not given) | Active |

System: not listed separately
Assay: Metabolic stability in mouse hepatocytes assessed as half life at 1 uM measured upto 30 mins
Type: ADME, cell-based, Hepatocyte
Details: not given

| Structure (SMILES) | half-life at 1 µM |
| --- | --- |
| CC(c1nc(-c2cc(NCc3ccc(C(=O)O)s3)cc(C(F)(F)F)c2)no1)c1cccc2ccccc12 (stereo not given) | 53.9 min |
| CC(c1nc(-c2cc(NCc3ccc(C(=O)O)cc3)cc(C(F)(F)F)c2)no1)c1cccc2ccccc12 (stereo not given) | 16.7 min |

From ChEMBL document CHEMBL5500399, “Design, Synthesis, and Biological Evaluation of 1,2,4-Oxadiazole Derivatives Containing an Aryl Carboxylic Acid Moiety as Potent Sarbecovirus Papain-like Protease Inhibitors” (J Med Chem, 2024)
